Test results reported in the NIST ThermoML archive (doi:10.1016/j.fluid.2006.07.016).
± gives the expanded uncertainty stated by the source.

What was measured:
[1] = 298.2 K; 101.33 kPa; Liquid
[2] = refractive index (Na D-line) (dimensionless); details: 298.2 K; 101.33 kPa; Liquid; Standard Abbe refractometry

mass density [1] [kg/m3]	refractive index [2]	Compound
799.7 ± 0.5	1.3839 ± 0.0007	CCCO [propan-1-ol]
882.5 ± 0.4	1.3828 ± 0.0007	CCCOC(C)=O [propyl ethanoate]
